Experimental data: patent US10245328B2, “Gadolinium complex comprising DO3A-tranexamic acid conjugate” (KYUNGPOOK NATIONAL UNIVERSITY INDUSTRY-ACADEMIC COOPERATION …, priority 2014, dated 2019)
Values belong to the molecule of their own block, whether it stands above or below them.

Assays:
[1] = Relaxation rate measurement (R1, R2) in PBS and in PBS solution of HSA; assay type: physicochemical; conditions: 293K; for R1 / R2: PBS pH 7.4, 64 MHz (1.5 T); for R1 in 0.67 mM HSA / R2 in 0.67 mM HSA: PBS solution of 0.67 mM HSA, 64 MHz
Description: T1 measurement is carried out using an inversion recovery method at 1.5 T (64 MHz) in a variable inverse time (TI). MR images are obtained for 35 different TI values in a range of 50 to 1750 ms. A T1 relaxation time is obtained from a nonlinear least-squares fit of a signal strength measured at each TI value. For a T2 CPMG (Carr-Purcell-Meiboon-Gill) pulse sequence measurement, the measurement is adapted to a multi spin-echo measurement. 34 images are obtained at 34 different echo time (TE) values in a range of 10 to 1900 ms. The T2 relaxation time is obtained from a nonlinear least-squares fit of mean pixel values for multi spin-echo measurement at each echo time. Next, a relaxation rate (R1 and R2) is calculated as an inverse of a relaxation time per mM. The determined relaxation time (T1 and T2) and relaxation rate (R1 and R2) are subjected to an image processing to get a relaxation time map and relaxation rate respectively.
For comparison between the complexes 2a-e, there is no noticeable difference in R1's. The measurement is carried out for two different media, that is, PBS (pH=7.4) and PBS solution of HAS in order to indicate which blood-pool effect is expressed by the complexes 2a-e.

[2] = Stability against hydrolysis in H2O (HPLC, 197 nm); assay type: physicochemical; conditions: for HPLC peak 2.38 min, 2b (trans) / HPLC peak 2.88 min, 2b (cis) / HPLC peak 3.16 min / HPLC peak 3.84 min / HPLC peak 7.66 min / HPLC peak 24.42 min / HPLC peak 28.12 min / HPLC peak 29.92 min / HPLC peak 34.46 min, Acid / HPLC peak 49.58 min: 2b in water; for HPLC peak 6.54 min, 2d / HPLC peak 7.79 min / HPLC peak 8.86 min / HPLC peak 33.15 min / HPLC peak 40.33 min / HPLC peak 40.81 min / HPLC peak 43.77 min / HPLC peak 44.51 min / HPLC peak 46.56 min: 2d in water; for HPLC peak 2.32 min / HPLC peak 4.98 min / HPLC peak 17.21 min, 2e / HPLC peak 23.70 min, 2e isomer / HPLC peak 40.63 min / HPLC peak 42.14 min / HPLC peak 43.00 min / HPLC peak 44.95 min / HPLC peak 45.93 min / HPLC peak 46.64 min / HPLC peak 48.46 min / HPLC peak 49.36 min: 2e in water
Description: The contrast agents of the present series 100 mg are dissolved in distilled water 10 mL and is maintained as they are for 72 hours at 50° C. Using HPLC, O.D. (Optical Density) values are read at 197 nm and the stability of the agents is determined. The substances at each retention time are examined using LC Mass Spectroscopy for accurate identification of decomposed products.

[3] = system: ICR mice; test: In vivo MR experiment, T1-weighted images after tail vein injection; conditions: for signal enhancement / signal strength at the liver / liver-specificity / class of contrast agent: 0.1 mmol Gd/kg i.v.; for signal enhancement / signal strength at the liver: 1.5 T, initial 1 hour; for liver-specificity / class of contrast agent: in vivo MR images of mice
Description: The in vivo experiment is executed with compliance to a regulation of Animal Research Committee of KNU. 29-31 g weight 6-weeks male ICR mice are used. […] The measurement is carried out before and after the injection of the complexes 2a-e through the tail vein. […] After the mice wake from the anesthesia after each measurement, the mice were placed in a cage capable of free access to feed and food. For this measurement, the animals are held at about 37° C. using a warm water blanket. MR images are taken using a 1.5 T MR unit (GE Healthcare, Milwaukee, Wis.) with a manual RF coil for a small animal. The coil may be of a receiver type having a 50 mm inner diameter. […] MR images are collected for 24 h after the injection. Anatomical positions having an improved contrast are set for a liver, a bile duct, and a kidney on (post contrast) MR images. For quantitative measurements, a signal intensity in a region of interest (ROI) is measured using Advantage Window software (GE medical, U.S.). The CNR is calculated using a following equation (1): […] SNR is a […].

Compound: O=C([O-])CN1CCN(CC(=O)[O-])CCN(CC(=O)NCC2CCC(C(=O)O)CC2)CCN(CC(=O)[O-])CC1.[Gd+3] (stereo not drawn) [2b]
R1 [1]: 3.87 ± 0.11 mM⁻¹ s⁻¹ | R2 [1]: 3.98 ± 0.26 mM⁻¹ s⁻¹ | R1 in 0.67 mM HSA [1]: 3.98 ± 0.14 mM⁻¹ s⁻¹ | R2 in 0.67 mM HSA [1]: 5.43 ± 0.28 mM⁻¹ s⁻¹ | HPLC peak 2.38 min, 2b (trans) ([2]; 50° C./3 day): 93.4% | HPLC peak 2.88 min, 2b (cis) ([2]; 50° C./3 day): 2.87% | HPLC peak 3.16 min ([2]; 50° C./3 day): 0.33% | HPLC peak 3.84 min ([2]; 50° C./3 day): 0.38% | HPLC peak 7.66 min ([2]; 50° C./3 day): 0.06% | HPLC peak 24.42 min ([2]; 50° C./3 day): 0.19% | HPLC peak 28.12 min ([2]; 50° C./3 day): 0.64% | HPLC peak 29.92 min ([2]; 50° C./3 day): 0.10% | HPLC peak 34.46 min, Acid ([2]; 50° C./3 day): 0.03% | HPLC peak 49.58 min ([2]; 50° C./3 day): 0.21% | HPLC peak 2.38 min, 2b (trans) ([2]; initial): 92.80% | HPLC peak 2.88 min, 2b (cis) ([2]; initial): 3.35% | HPLC peak 3.16 min ([2]; initial): 0.30% | HPLC peak 3.84 min ([2]; initial): 0.35% | HPLC peak 7.66 min ([2]; initial): 0.12% | HPLC peak 24.42 min ([2]; initial): 0.06% | HPLC peak 28.12 min ([2]; initial): 0.56% | HPLC peak 29.92 min ([2]; initial): 0.09% | HPLC peak 34.46 min, Acid ([2]; initial): 0.34% | HPLC peak 49.58 min ([2]; initial): 0.19% | signal enhancement / signal strength at the liver ([3]; ICR mice): strong signal enhancement | liver-specificity / class of contrast agent [3]: strong specificity enhancement

Compound: NCCNC(=O)C1CCC(CNC(=O)CN2CCN(CC(=O)[O-])CCN(CC(=O)[O-])CCN(CC(=O)[O-])CC2)CC1.[Gd+3] (stereo not drawn) [2c]
R1 [1]: 3.68 ± 0.13 mM⁻¹ s⁻¹ | R2 [1]: 3.62 ± 0.26 mM⁻¹ s⁻¹ | R1 in 0.67 mM HSA [1]: 3.74 ± 0.07 mM⁻¹ s⁻¹ | R2 in 0.67 mM HSA [1]: 4.10 ± 0.07 mM⁻¹ s⁻¹ | HPLC peak 2.58% ([2]; 2c in water, 50° C./3 day): 0.27% | HPLC peak 7.61% ([2]; 2c in water, 50° C./3 day): 0.14% | HPLC peak 19.86% ([2]; 2c in water, 50° C./3 day): 2.30% | HPLC peak 2.31 min, 2b ([2]; 2c in water, 50° C./3 day): 0.11% | HPLC peak 9.10 min, 2c (trans) ([2]; 2c in water, 50° C./3 day): 93.11% | HPLC peak 10.60 min, 2c (cis) ([2]; 2c in water, 50° C./3 day): 1.19% | HPLC peak 40.68 min, 1c ([2]; 2c in water, 50° C./3 day): 0.002% | HPLC peak 45.53 min ([2]; 2c in water, 50° C./3 day): 0.18% | HPLC peak 49.81 min ([2]; 2c in water, 50° C./3 day): 0.11% | HPLC peak 2.58% ([2]; 2c in water, initial): 0.27% | HPLC peak 7.61% ([2]; 2c in water, initial): 0.14% | HPLC peak 2.31 min, 2b ([2]; 2c in water, initial): 0.06% | HPLC peak 9.10 min, 2c (trans) ([2]; 2c in water, initial): 91.05% | HPLC peak 10.60 min, 2c (cis) ([2]; 2c in water, initial): 1.35% | HPLC peak 40.68 min, 1c ([2]; 2c in water, initial): 1.65% | HPLC peak 45.53 min ([2]; 2c in water, initial): 0.16% | HPLC peak 49.81 min ([2]; 2c in water, initial): 0.09% | signal enhancement / signal strength at the liver ([3]; ICR mice): strong signal enhancement | liver-specificity / class of contrast agent [3]: strong specificity enhancement

Compound: NC1CCC(NC(=O)CN2CCN(CC(=O)[O-])CCN(CC(=O)[O-])CCN(CC(=O)[O-])CC2)CC1.[Gd+3] (stereo not drawn) [2d]
R1 [1]: 3.94 ± 0.13 mM⁻¹ s⁻¹ | R2 [1]: 3.68 ± 0.29 mM⁻¹ s⁻¹ | R1 in 0.67 mM HSA [1]: 3.91 ± 0.09 mM⁻¹ s⁻¹ | R2 in 0.67 mM HSA [1]: 4.07 ± 0.09 mM⁻¹ s⁻¹ | HPLC peak 6.54 min, 2d ([2]; 50° C./3 day): 90.10% | HPLC peak 7.79 min ([2]; 50° C./3 day): 0.36% | HPLC peak 8.86 min ([2]; 50° C./3 day): 0.30% | HPLC peak 33.15 min ([2]; 50° C./3 day): 1.12% | HPLC peak 40.33 min ([2]; 50° C./3 day): 0.007% | HPLC peak 40.81 min ([2]; 50° C./3 day): 0.14% | HPLC peak 43.77 min ([2]; 50° C./3 day): 0.25% | HPLC peak 44.51 min ([2]; 50° C./3 day): 0.22% | HPLC peak 46.56 min ([2]; 50° C./3 day): 0.18% | HPLC peak 6.54 min, 2d ([2]; initial): 89.67% | HPLC peak 7.79 min ([2]; initial): 0.30% | HPLC peak 8.86 min ([2]; initial): 0.30% | HPLC peak 33.15 min ([2]; initial): 1.20% | HPLC peak 40.33 min ([2]; initial): 0.16% | HPLC peak 40.81 min ([2]; initial): 0.14% | HPLC peak 43.77 min ([2]; initial): 0.27% | HPLC peak 44.51 min ([2]; initial): 0.23% | HPLC peak 46.56 min ([2]; initial): 0.19% | liver-specificity / class of contrast agent [3]: ECF contrast agent | signal enhancement at the kidney and abdominal aorta ([3]; initially after 0.1 mmol Gd/kg i.v., ICR mice): strong signal enhancement

Compound: O=C([O-])CN1CCN(CC(=O)[O-])CCN(CC(=O)NCC2CCCCC2)CCN(CC(=O)[O-])CC1.[Gd+3] [2e]
R1 [1]: 4.49 ± 0.18 mM⁻¹ s⁻¹ | R2 [1]: 4.52 ± 0.28 mM⁻¹ s⁻¹ | R1 in 0.67 mM HSA [1]: 5.21 ± 0.23 mM⁻¹ s⁻¹ | R2 in 0.67 mM HSA [1]: 6.22 ± 0.28 mM⁻¹ s⁻¹ | HPLC peak 2.32 min ([2]; 50° C./3 day): 0.04% | HPLC peak 4.98 min ([2]; 50° C./3 day): 0.07% | HPLC peak 17.21 min, 2e ([2]; 50° C./3 day): 94.66% | HPLC peak 23.70 min, 2e isomer ([2]; 50° C./3 day): 1.57% | HPLC peak 40.63 min ([2]; 50° C./3 day): 0.05% | HPLC peak 42.14 min ([2]; 50° C./3 day): 0.05% | HPLC peak 43.00 min ([2]; 50° C./3 day): 0.05% | HPLC peak 44.95 min ([2]; 50° C./3 day): 0.05% | HPLC peak 45.93 min ([2]; 50° C./3 day): 0.03% | HPLC peak 46.64 min ([2]; 50° C./3 day): 0.01% | HPLC peak 48.46 min ([2]; 50° C./3 day): 0.03% | HPLC peak 49.36 min ([2]; 50° C./3 day): 0.18% | HPLC peak 2.32 min ([2]; initial): 0.04% | HPLC peak 4.98 min ([2]; initial): 0.09% | HPLC peak 17.21 min, 2e ([2]; initial): 94.88% | HPLC peak 23.70 min, 2e isomer ([2]; initial): 1.36% | HPLC peak 40.63 min ([2]; initial): 0.03% | HPLC peak 42.14 min ([2]; initial): 0.01% | HPLC peak 43.00 min ([2]; initial): 0.05% | HPLC peak 44.95 min ([2]; initial): 0.05% | HPLC peak 45.93 min ([2]; initial): 0.04% | HPLC peak 46.64 min ([2]; initial): 0.02% | HPLC peak 48.46 min ([2]; initial): 0.03% | HPLC peak 49.36 min ([2]; initial): 0.18%

R1 [1]: 3.59 ± 0.17 mM⁻¹ s⁻¹ | R2 [1]: 3.87 ± 0.20 mM⁻¹ s⁻¹ | R1 in 0.67 mM HSA [1]: 4.05 ± 0.13 mM⁻¹ s⁻¹ | R2 in 0.67 mM HSA [1]: 4.30 ± 0.25 mM⁻¹ s⁻¹
Compound: CNC[C@H](O)[C@@H](O)[C@H](O)[C@H](O)CO.O=C([O-])CN1CCN(CC(=O)[O-])CCN(CC(=O)O)CCN(CC(=O)[O-])CC1.[Gd+3] [Dotarem, Gd-DOTA, reference compound]
